Experimental data reported in patent US20230022032A1, “uPAR-TARGETED PHOTOTHERMAL OPTICAL PROBES FOR PHOTOTHERMAL THERAPY” (RIGSHOSPITALET, priority 2019, published 2023).
“Also recorded” adds a separate entry of the source.

How the values were obtained:
[1] = In vitro heating of solutions under NIR laser irradiation (FLIR thermal camera); type: physicochemical; conditions: NIR laser 2 W/cm^2; for temperature reached in solution: 228 nmol; for temperature reached in solution / maximum temperature in solution: five minutes irradiation; for maximum temperature of solution: irradiated for ten minutes
Protocol: The ability of ICG to generate high temperatures when irradiated with NIR light was measured in vitro. Different concentrations (228, 46, 23 and 12 nmol) of unconjugated ICG and ICG-Glu-Glu-AE105 in solution (0.2 g/ml (2-hydroxypropyl)-β-cyclodextrin in water and DMSO) were placed in a plastic cuvette under the laser beam. The laser was turned on for five minutes at 2 W/cm2 and the temperature measured with a thermal camera (FLIR T-440 camera), taking images every 30 seconds. The images were analyzed using the FLIR tools software.
In order to test the ability of ICG-Glu-Glu-AE105 to heat under NIR light, different concentrations of the compound in solution were placed in a plastic cuvette under a laser, at an intensity of 2 W/cm^2. The samples were then irradiated for ten minutes and the temperatures detected with a FLIR camera. For the highest concentration tested, 0.5 mg/ml, temperature increased fast in the first minutes and slower and in a more steady way after that, reaching a maximum temperature of 70.8±3° C. after ten minutes of irradiation. In contrast, lower concentrations reached their maximum peak fast; at five minutes for 0.1 mg/ml (62.7±1.6° C.), and around two to three minutes for 0.05 and 0.025 mg/ml (51.4±0.9 and 40.7±0.4° C. respectively). From that point, temperatures started to decrease most likely due to the irreversible degradation of ICG, which impedes heat generation (Wang et al., 2013).
Different concentrations of ICG in solution were irradiated as it was done for the conjugated dye. […] As expected, the maximum temperature was very similar to the one reached by 0.5 mg/ml of ICG-Glu-Glu-AE105, because a concentration of 0.5 mg/ml of ICG-Glu-Glu-AE105 corresponds to approximately 0.18 mg/ml of ICG alone. […] 0.05 mg/ml of ICG reached a maximum of 68.8±0.7° C. after seven minutes of irradiation, meanwhile 0.025 mg/ml of ICG peaked at three minutes at 50±0.2° C.
5 minutes irradiation trials were also made with reference to testing the ability of ICG-Glu-Glu-AE105 to heat under NIR light. See the set up with the compound in solution placed in a plastic cuvette under a laser beam (intensity 2 W/cm^2) in FIG. 1a. In this case the samples were irradiated for five minutes and the maximum temperatures were recorded with a FLIR camera. (FIG. 1b).
However, it was observed that the heat was mainly localized at the top of the sample and not evenly distributed throughout the solution. […] An important detail observed was the temperature decrease after reaching a certain peak, most likely due to the irreversible degradation of ICG, which impedes heat generation (Wang, Y.-G., Kim, H., Mun, S., Kim, D. & Choi, Y).

[2] = tested on: subcutaneous U-87 MG.luc2 tumors; experiment: In vivo photothermal therapy (PTT) in subcutaneous mouse model of human glioblastoma; parameters: species or system mice; conditions: for median survival: endpoint tumor 1000 mm^3; for highest temperature reached on tumor surface during PTT: 46 nmol injected four hours before PTT, 5 minutes NIR light at 2 W/cm^2
Protocol: The animal experiments were approved by the Danish Animal Welfare Council, Ministry of Justice. For the in vivo studies, U-87 MG.luc2 cells were cultured in Dulbecco's modified eagle medium supplemented with 10% fetal bovine serum and 1% penicillin-streptomycin (Thermo Fisher Scientific) at 37° C. and in 5% CO2. When cells reached 70% confluence, they were harvested and 2-3×10^6 cells in 100 μl of PBS were inoculated into the left flank of NMRI nude female mice (Janvier Labs, France). Animals were left to grow tumors until they reached 300 mm^3 (day −1). From then on, tumors were measured every other day with the use of a caliper, and tumor volume calculated through the formula: (length×width^2)*0.5. When tumors reached 1,000 mm^3, animals were euthanized.
When tumors reached 300 mm^3, mice were divided into 5 groups: ICG-Glu-Glu-AE105 group (mice injected with 46 nmol ICG-Glu-Glu-AE105 four hours before PTT, n=6); ICG group (mice injected with 46 nmol of unconjugated ICG four hours before PTT, n=4); Saline group (mice injected with saline four hours before PTT, n=4); sham group (mice injected with ICG-Glu-Glu-AE105 and no PTT, n=5) and a control group (no injection, no PTT, n=4). Animals were given analgesia (buprenorphin, 0.3 mg/ml) right before the laser treatment and every 6 to 8 hours until deemed necessary. For PTT, animals were anesthetized with sevoflurane as previously described and placed under the laser beam for five minutes at 2 W/cm^2. The tumors were swabbed with glycerol, an index-matching agent, prior to the laser treatment to facilitate light penetration (Deng et al. 2011, Vargas et al., 1999, Simon et al., 2019). The temperatures reached on the tumor surface were detected with a thermal camera, as described for the in vitro experiments.
Animals were bioluminescence-scanned a day before PTT, on PTT day and afterwards every other day until endpoints were reached, using IVIS Lumina XR and acquisition software Living Image (Caliper life Sciences, Hopkinton, Calif., USA). For these bioluminescence scans, luciferin was injected intraperitoneally ([…]) ten minutes before the scan. Animals were then anesthetized as described in the previous sections and placed in the prone position. The excitation filter was set to 710 nm and the emission filter was set on ICG.
The fluorescence scans were performed to detect ICG signal before and after PTT using the Fluobeam®800 NIR-camera as described for the accumulation study.
The Kaplan-Meier method was used to create the survival curves, and they were compared through the log-rank test. The maximum temperatures on tumor surface were compared using one-way ANOVA with Tukey's multiple comparisons test. The fluorescence emitted by ICG measured by the Fluobeam before and after PTT was compared using two-way ANOVA with Sidak's multiple comparisons test. The data was plotted in Prism7 and shown as mean±SEM.
After determining ideal dose and treatment schedule, different groups of mice were set up in order to test the ability of ICG-Glu-Glu-AE105 as a photothermal agent, capable of specifically ablating tumors in vivo. For this, mice were injected subcutaneously with U-87 MG.luc2 cells, a type of glioblastoma cells expressing luciferase, which allows for bioluminescence imaging when luciferin is injected. The bioluminescence signal, detected when the reactive luciferin was injected and oxidized by the enzyme luciferase, serves as a way to determine treatment success and follow tumor growth. […] The timeline for the experiments can be seen on FIG. 3. On baseline (day −1), mice underwent a pre-treatment bioluminescence scan. Following, on treatment day (day 0), mice were injected with either ICG-Glu-Glu-AE105, ICG alone, saline or not injected as it was the case for the control group. Approximately four hours after injection, all groups but sham and control were irradiated for 5 minutes with NIR light at 2 W/cm2, and the temperatures on tumor surface were measured with a FLIR camera. […]

[3] = tested on: U-87 MG.luc2 tumor tissue; experiment: Tumor response ex vivo: H&E staining and uPAR immunohistochemistry of tumors resected 2 days after PTT; type: in vivo, mice; conditions: n=2 per group
Protocol: Tumors were resected from n=2 mice per group two days after PTT. Tumors were fixated in formaldehyde overnight, and afterwards conserved in ethanol for their later embedding in paraffin. To perform the histology experiments, tumors were resected in 4 μm slices in a microtome (Thermo Scientific Microm HM355S). The tissue slides were left to dry for at least 1.5 hours, and then heated first at 40 and after at 60° C. Following, slides were submerged in HistoClear to achieve deparaffinization and rehydrated through a series of EtOH to water. For hematoxylin and eosin staining, the tissue slides were stained with hematoxylin for 5 minutes, rinsed and stained with eosin for 3 minutes.
For immunohistochemistry, the rehydrated tissue slides underwent heat-induced epitope retrieval (HIER) by covering the tissue slides with 250 mL citrate buffer (pH=6), and steaming them at 100° C. for 15 minutes. […]
Finally, tumors from mice receiving the different treatments (n=2) were resected at day 2 (after PTT) and H&E stained to confirm changes in tumor morphology due to treatment ex vivo (FIG. 7). […] Finally, macrophages were detected through CD68 staining to observe co-localization with uPAR signal, which could be noted, again, for all viable tumor regions.

[4] = 46 nmol four hours before PTT (5 minutes, 2 W/cm^2)

Which “temperature reached in solution” value [1] does the source give for `CC(C)C[C@H](NC(=O)[C@H](Cc1ccc(O)cc1)NC(=O)C(CCCNC(=N)N)NC(=O)C(CO)NC(=O)C(Cc1ccccc1)NC(=O)[C@H](CC1CCCCC1)NC(=O)C(CC(=O)O)NC(=O)C(CCC(=O)O)NC(=O)C(CCC(=O)O)NC(=O)CCCCCN1\C(=C/C=C/C=C/C=C/C2=[N+](CCCCS(=O)(=O)[O-])c3ccc4ccccc4c3C2(C)C)C(C)(C)c2c1ccc1ccccc21)C(=O)N[C@@H](Cc1c[nH]c2ccccc12)C(=O)N[C@@H](CO)C(=O)O` (stereo partly drawn) [ICG-Glu-Glu-AE105] here?
The value was “around 80 °C”.

And the “maximum temperature of solution” value ([1]; 0.025 mg/ml in solution)?
Its value is 40.7±0.4 °C.

What about the “maximum temperature of solution” value ([1]; 0.05 mg/ml in solution) of the same compound?
Its value is 51.4±0.9 °C.

And the “maximum temperature of solution” value ([1]; 0.1 mg/ml in solution)?
The value was 62.7±1.6 °C.

What about the “maximum temperature of solution” value ([1]; 0.5 mg/ml in solution) of the same compound?
Its value is 70.8±3 °C.

What about the median survival [2, 4] of the same compound?
Its median survival is 13.5 days.

And the “tumor growth after PTT” value ([2]; 46 nmol four hours before PTT, caliper measurement, compared to all the other groups)?
The value was “delay in tumor growth”.

And the “highest temperature reached on tumor surface during PTT” value [2]?
Its value is “around 52 °C”.

And the “complete tumor disappearance after PTT” value ([2]; n=6, followed until 60 days after PTT)?
The value was “one mouse even experienced complete tumor disappearance”.

What about the “bioluminescence signal after PTT” value ([2]; ratio FLUX (day X/day -1), versus all the other groups) of the same compound?
The value was “reduced signal”.

And the median survival ([2]; sham group: injected, no laser treatment)?
The median survival was 8 days.

And the “H&E staining of tumor tissue” value [3]?
Its value is “high degree of cell death; also recorded: tissue disruption and hemorrhage”.

What about the “uPAR signal in tumor tissue (immunological staining)” value [3] of the same compound?
The value was “decrease in uPAR signal”.

Which “maximum temperature in solution” value ([1]; 12 nmol) does the source give for `CC1(C)C(/C=C/C=C/C=C/C=C2\N(CCCCS(=O)(=O)O)c3ccc4ccccc4c3C2(C)C)=[N+](CCCCS(=O)(=O)[O-])c2ccc3ccccc3c21` [ICG, indocyanine green] here?
Its value is “around 38 °C”.

And the “maximum temperature in solution” value ([1]; 23 nmol)?
The value was “below 50 °C”.

What about the “temperature reached in solution” value [1] of the same compound?
The value was “around 80 °C”.

What about the “maximum temperature of solution” value ([1]; 0.025 mg/ml in solution) of the same compound?
The value was 50±0.2 °C.

And the “maximum temperature of solution” value ([1]; 0.05 mg/ml in solution)?
The value was 68.8±0.7 °C.

And the “maximum temperature of solution” value ([1]; 0.1 mg/ml in solution)?
Its value is 71.4±1.1 °C.

And the median survival [2, 4]?
Its median survival is 10 days.

And the “highest temperature reached on tumor surface during PTT” value [2]?
The value was “around 45 °C”.
